One assay deals with T1, USP8 (Homo sapiens, UniProt P40818).
T1 sequence (P40818 1-1118): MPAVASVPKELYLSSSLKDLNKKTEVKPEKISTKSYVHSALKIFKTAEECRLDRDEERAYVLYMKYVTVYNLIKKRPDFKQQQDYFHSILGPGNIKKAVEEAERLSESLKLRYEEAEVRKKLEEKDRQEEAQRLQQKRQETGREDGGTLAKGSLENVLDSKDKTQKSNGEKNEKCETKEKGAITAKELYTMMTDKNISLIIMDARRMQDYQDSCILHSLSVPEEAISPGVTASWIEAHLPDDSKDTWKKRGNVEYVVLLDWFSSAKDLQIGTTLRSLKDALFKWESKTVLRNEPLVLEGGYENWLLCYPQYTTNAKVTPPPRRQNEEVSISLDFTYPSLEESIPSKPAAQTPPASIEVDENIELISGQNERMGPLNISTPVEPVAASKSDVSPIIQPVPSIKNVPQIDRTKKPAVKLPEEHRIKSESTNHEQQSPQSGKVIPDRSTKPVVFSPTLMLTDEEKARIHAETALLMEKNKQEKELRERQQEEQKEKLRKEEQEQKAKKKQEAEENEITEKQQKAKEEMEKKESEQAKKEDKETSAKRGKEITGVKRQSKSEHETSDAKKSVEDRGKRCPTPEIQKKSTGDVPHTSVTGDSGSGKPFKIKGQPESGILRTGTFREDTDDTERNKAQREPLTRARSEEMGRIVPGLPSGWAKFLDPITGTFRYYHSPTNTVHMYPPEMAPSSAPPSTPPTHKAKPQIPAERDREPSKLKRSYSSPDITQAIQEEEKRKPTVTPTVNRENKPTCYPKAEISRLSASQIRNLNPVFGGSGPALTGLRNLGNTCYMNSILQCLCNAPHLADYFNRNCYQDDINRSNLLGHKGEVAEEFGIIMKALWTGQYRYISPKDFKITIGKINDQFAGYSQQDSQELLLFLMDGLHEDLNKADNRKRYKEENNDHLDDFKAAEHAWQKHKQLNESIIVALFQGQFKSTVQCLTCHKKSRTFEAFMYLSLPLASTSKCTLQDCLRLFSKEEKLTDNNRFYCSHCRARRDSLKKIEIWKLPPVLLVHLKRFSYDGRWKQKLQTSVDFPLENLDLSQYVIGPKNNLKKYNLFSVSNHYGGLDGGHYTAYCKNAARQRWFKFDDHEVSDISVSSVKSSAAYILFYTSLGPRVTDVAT
Kind of assay: biochemical.

The next assay addresses T2, USP19 (Homo sapiens, UniProt O94966).
T2 sequence (O94966 1-1318): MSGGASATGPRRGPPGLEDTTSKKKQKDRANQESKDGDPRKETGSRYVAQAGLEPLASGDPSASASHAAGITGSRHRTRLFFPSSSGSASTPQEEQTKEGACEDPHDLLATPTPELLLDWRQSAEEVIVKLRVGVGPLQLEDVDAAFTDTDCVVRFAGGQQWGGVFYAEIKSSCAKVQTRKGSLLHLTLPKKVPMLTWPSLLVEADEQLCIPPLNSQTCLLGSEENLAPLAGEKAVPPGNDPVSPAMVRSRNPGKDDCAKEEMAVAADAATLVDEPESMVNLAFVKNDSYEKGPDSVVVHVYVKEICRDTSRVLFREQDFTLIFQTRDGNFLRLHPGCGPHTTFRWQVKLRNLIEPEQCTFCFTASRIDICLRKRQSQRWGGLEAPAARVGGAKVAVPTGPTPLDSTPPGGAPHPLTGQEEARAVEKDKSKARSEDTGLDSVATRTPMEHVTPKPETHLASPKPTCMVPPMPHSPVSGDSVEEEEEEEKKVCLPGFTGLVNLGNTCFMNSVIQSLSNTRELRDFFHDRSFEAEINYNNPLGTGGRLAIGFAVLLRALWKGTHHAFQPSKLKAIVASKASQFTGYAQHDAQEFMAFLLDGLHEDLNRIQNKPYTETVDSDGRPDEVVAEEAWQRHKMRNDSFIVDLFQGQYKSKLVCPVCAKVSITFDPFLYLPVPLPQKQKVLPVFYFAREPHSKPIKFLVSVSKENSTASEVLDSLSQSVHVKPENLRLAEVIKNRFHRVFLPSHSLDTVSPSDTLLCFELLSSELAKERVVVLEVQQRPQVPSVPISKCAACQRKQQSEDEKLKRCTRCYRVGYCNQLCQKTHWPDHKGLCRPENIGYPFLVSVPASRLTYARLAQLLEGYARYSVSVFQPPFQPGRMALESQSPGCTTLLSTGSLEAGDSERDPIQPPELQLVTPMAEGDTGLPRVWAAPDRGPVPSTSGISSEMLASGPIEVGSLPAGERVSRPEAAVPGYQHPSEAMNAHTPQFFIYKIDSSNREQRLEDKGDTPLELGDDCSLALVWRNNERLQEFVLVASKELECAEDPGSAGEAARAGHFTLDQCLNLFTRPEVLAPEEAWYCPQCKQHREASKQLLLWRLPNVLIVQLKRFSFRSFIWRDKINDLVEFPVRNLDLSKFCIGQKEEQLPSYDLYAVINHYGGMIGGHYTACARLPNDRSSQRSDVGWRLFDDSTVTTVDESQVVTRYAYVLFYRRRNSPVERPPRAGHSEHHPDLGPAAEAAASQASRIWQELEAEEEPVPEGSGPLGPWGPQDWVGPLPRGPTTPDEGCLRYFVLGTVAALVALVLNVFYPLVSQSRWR
Kind of assay: Biochemical DUB selectivity profiling assay: USP19. Conditions: Ub-Lys-TAMRA 50 nM, buffer A; read-out: Biochemical IC50 range, USP19. On the procedure: DUB Assay Substrate Substrate
Buffer Concentration (nM) […]
Sepharose® 4B resin (GE Healthcare).
10 kDa molecular weight cut-off (MWCO)).
Fractions containing protein
Protein concentration was […]
reaction volume of 21 μL. […]
compound (final concentration 5 nM).
IC50 values were determined
Biochemical DUB selectivity profiling assays […]
in 40 µL total reaction volume.

Consider `N#CN1CCC[C@H]1C(=O)N1CCc2c(-c3c[nH]c4ncccc34)cccc21` [Compound 1], for which the IC50 on USP8 and on USP19 was > 10 µM each time.
`C#Cc1cnc2[nH]cc(-c3cccc4c3CCN4C(=O)[C@@H]3CCCN3C#N)c2c1` [Compound 2]: on USP19, the IC50 is > 10 µM.
For `N#CN1CCC[C@@H]1C(=O)N1CCc2c(-c3c[nH]c4ncccc34)cccc21` [Compound 3], the IC50 on USP8 and on USP19 was > 10 µM throughout.
Turning to `CC(=O)O/N=C1\C(=O)N(Cc2cc(Cl)ccc2Cl)c2ccc(Cl)cc21` [LDN-57444, reference compound], the IC50 against USP8 and on USP19 was > 10 µM each time.

Broadly, the IC50 is the midpoint of a concentration-inhibition curve.

The values are drawn from PMC7366380, “Discovery of a Potent and Selective Covalent Inhibitor and Activity-Based Probe for the Deubiquitylating Enzyme UCHL1, with Antifibrotic Activity” (Journal of the American Chemical Society, 2020).
